Results from PubChem BioAssay AID256 (DTP/NCI, 2004).
Toxic doses and inconclusive results are not listed. Rule for the calls: active = survival T/C of 150% or more; inactive = T/C below 125% in these data. Non-standard residues stand in square brackets, D forms with d. Residues, ends and D or L forms follow the SMILES beside them. ξ: configuration not given here. *: point of attachment. ξL = CC(C)CC(N)C(=O)O; ClAc = O=C(CCl)*

System: CD2F1 mice, L1210 leukemia ip, survival T/C
Assay: NCI In Vivo Anticancer Drug Screen. Data for tumor model L1210 Leukemia (intraperitoneal) in CD2F1 (CDF1) mice
Details: higher = longer survival
Method in brief: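 Activity against a transplanted murine tumor was judged by comparing the compound group with a vehicle group. The outcome in the treated animals was divided by that in the controls.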

[1] = endpoint: mean survival time, dose: 100.0 mg/kg/injection, schedule: Q01DX009 (ip), vehicle: saline with Tween-80
[2] = endpoint: mean survival time, dose: 200.0 mg/kg/injection, schedule: Q01DX009 (ip), vehicle: saline with Tween-80
[3] = endpoint: mean survival time, dose: 400.0 mg/kg/injection, schedule: Q01DX009 (ip), vehicle: saline with Tween-80
[4] = endpoint: mean survival time, dose: 100.0 mg/kg/injection, schedule: Q04DX003 (ip), vehicle: saline with Tween-80
[5] = endpoint: mean survival time, dose: 200.0 mg/kg/injection, schedule: Q04DX003 (ip), vehicle: saline with Tween-80
[6] = endpoint: mean survival time, dose: 400.0 mg/kg/injection, schedule: Q04DX003 (ip), vehicle: saline with Tween-80
[7] = endpoint: mean survival time, dose: 100.0 mg/kg/injection, schedule: Q01DX009 (ip), vehicle: saline
[8] = endpoint: mean survival time, dose: 100.0 mg/kg/injection, schedule: Q01DX001 (ip), vehicle: saline with Tween-80
[9] = endpoint: mean survival time, dose: 200.0 mg/kg/injection, schedule: Q01DX001 (ip), vehicle: saline with Tween-80
[10] = endpoint: mean survival time, dose: 400.0 mg/kg/injection, schedule: Q01DX001 (ip), vehicle: saline with Tween-80
[11] = endpoint: mean survival time, dose: 50.0 mg/kg/injection, schedule: Q01DX009 (ip), vehicle: saline with Tween-80
[12] = endpoint: mean survival time, dose: 12.5 mg/kg/injection, schedule: Q01DX009 (ip), vehicle: water
[13] = endpoint: mean survival time, dose: 25.0 mg/kg/injection, schedule: Q01DX009 (ip), vehicle: water

Measured: T/C

NC(N)=Nc1nc2ccccc2[nH]1
inactive: endpoint: mean survival time, dose: 7.0 mg/kg/injection, schedule: Q01DX009 (ip), vehicle: saline 104 % of control | endpoint: mean survival time, dose: 14.0 mg/kg/injection, schedule: Q01DX009 (ip), vehicle: saline 104 % of control | endpoint: mean survival time, dose: 28.0 mg/kg/injection, schedule: Q01DX009 (ip), vehicle: saline 98 % of control

Cc1ccc(N=C(N)NC#N)cc1
inactive: [1] 91 % of control | [2] 93 % of control | [3] 91 % of control

CC(=O)Nc1ncc([N+](=O)[O-])s1
inactive: endpoint: mean survival time, dose: 50.0 mg/kg/injection, schedule: Q04DX003 (ip), vehicle: saline with Tween-80 100 % of control | [4] 105 % of control | [5] 100 % of control

Cc1cc(C)cc(OCCOCCOc2cc(C)cc(C)c2)c1
inactive: [4] 94 % of control | [5] 97 % of control | [6] 100 % of control

CN(C)N=Nc1ccc(Cl)cc1C(=O)O
inactive: endpoint: mean survival time, dose: 266.0 mg/kg/injection, schedule: Q04DX003 (ip), vehicle: other 114 % of control | endpoint: mean survival time, dose: 400.0 mg/kg/injection, schedule: Q04DX003 (ip), vehicle: other 120 % of control

COc1ccc(CSc2nn(C3OC(COC(=O)c4ccccc4)C(OC(=O)c4ccccc4)C3OC(=O)c3ccccc3)c(=O)[nH]c2=S)cc1 (stereo unspecified)
inactive: endpoint: mean survival time, dose: 12.5 mg/kg/injection, schedule: Q01DX005 (ip), vehicle: distilled water + Tween-80 104 % of control | endpoint: mean survival time, dose: 25.0 mg/kg/injection, schedule: Q01DX005 (ip), vehicle: distilled water + Tween-80 101 % of control | endpoint: mean survival time, dose: 50.0 mg/kg/injection, schedule: Q01DX005 (ip), vehicle: distilled water + Tween-80 93 % of control | endpoint: mean survival time, dose: 100.0 mg/kg/injection, schedule: Q01DX005 (ip), vehicle: distilled water + Tween-80 93 % of control | endpoint: mean survival time, dose: 200.0 mg/kg/injection, schedule: Q01DX005 (ip), vehicle: distilled water + Tween-80 90 % of control

CC1(C)N=C(N)N=C(N)N1c1cccc(CC(=O)Nc2ccc(S(=O)(=O)F)cc2)c1
inactive: endpoint: mean survival time, dose: 50.0 mg/kg/injection, schedule: Q01DX009 (ip), vehicle: saline 120 % of control | [7] 117 % of control | endpoint: mean survival time, dose: 300.0 mg/kg/injection, schedule: Q01DX009 (ip), vehicle: saline 120 % of control

CNC1CCC(C(=O)O)CC1 (stereo unspecified)
inactive: [7] 107 % of control | endpoint: mean survival time, dose: 200.0 mg/kg/injection, schedule: Q01DX009 (ip), vehicle: saline 103 % of control | endpoint: mean survival time, dose: 400.0 mg/kg/injection, schedule: Q01DX009 (ip), vehicle: saline 96 % of control

CCOC1OC(C(COC(C)=O)OC(C)=O)C(OC(C)=O)C(OC(C)=O)C1OC(C)=O (stereo unspecified)
inactive: [8] 104 % of control | [9] 96 % of control | [10] 101 % of control

COC(=O)C1CC2C=CC1CC2 (stereo unspecified)
inactive: endpoint: mean survival time, dose: 100.0 mg/kg/injection, schedule: Q04DX003 (ip), vehicle: saline 97 % of control | endpoint: mean survival time, dose: 200.0 mg/kg/injection, schedule: Q04DX003 (ip), vehicle: saline 105 % of control | endpoint: mean survival time, dose: 400.0 mg/kg/injection, schedule: Q04DX003 (ip), vehicle: saline 95 % of control

COCC1C2CCC(C2)C1COC (stereo unspecified)
inactive: [8] 104 % of control | [9] 92 % of control | [10] 97 % of control

O=C1CCCC1(c1ccccc1)c1ccccc1
inactive: [1] 101 % of control | [4] 91 % of control | [2] 101 % of control | [5] 91 % of control | [3] 95 % of control | [6] 94 % of control

Cc1ccc(S(=O)(=O)SC(F)(F)F)cc1
inactive: endpoint: mean survival time, dose: 5.0 mg/kg/injection, schedule: Q01DX001 (ip), vehicle: saline 106 % of control | endpoint: mean survival time, dose: 10.0 mg/kg/injection, schedule: Q01DX001 (ip), vehicle: saline 104 % of control

CC(=O)OC1CCC2(C)C(=CCC3C2CCC2(C)C(OC(=O)c4ccccc4)CCC32)C1 (stereo unspecified)
inactive: endpoint: mean survival time, dose: 100.0 mg/kg/injection, schedule: Q04DX003 (ip), vehicle: acetone 104 % of control | endpoint: mean survival time, dose: 200.0 mg/kg/injection, schedule: Q04DX003 (ip), vehicle: acetone 90 % of control | endpoint: mean survival time, dose: 400.0 mg/kg/injection, schedule: Q04DX003 (ip), vehicle: acetone 86 % of control

Cc1ccc(NC(=O)Oc2ccccc2F)cc1C
inactive: [11] 100 % of control | [1] 87 % of control | [2] 104 % of control

CS(=O)(=O)OCCN(CCOS(C)(=O)=O)c1cccc(C(F)(F)F)c1
inactive: endpoint: mean survival time, dose: 6.25 mg/kg/injection, schedule: Q01DX015 (ip), vehicle: saline 113 % of control | endpoint: mean survival time, dose: 12.5 mg/kg/injection, schedule: Q01DX015 (ip), vehicle: saline 119 % of control | endpoint: mean survival time, dose: 25.0 mg/kg/injection, schedule: Q01DX015 (ip), vehicle: saline 107 % of control | endpoint: mean survival time, dose: 50.0 mg/kg/injection, schedule: Q01DX015 (ip), vehicle: saline 98 % of control

CC(C)CCCC(C)C1CCC2C3CCC4CC(OCN5CCCCC5)CCC4(C)C3CCC12C (stereo unspecified)
inactive: endpoint: mean survival time, dose: 100.0 mg/kg/injection, schedule: Q04DX003 (ip), vehicle: Klucel (hydroxypropylcellulose) (HPC) 95 % of control | endpoint: mean survival time, dose: 200.0 mg/kg/injection, schedule: Q04DX003 (ip), vehicle: Klucel (hydroxypropylcellulose) (HPC) 92 % of control | endpoint: mean survival time, dose: 400.0 mg/kg/injection, schedule: Q04DX003 (ip), vehicle: Klucel (hydroxypropylcellulose) (HPC) 92 % of control

O=C1C2C3C=CC(O3)C2C(=O)N1O (stereo unspecified)
inactive: [12] 97 % of control | [13] 96 % of control

COc1ccc(CC(=O)NC(C)Cc2ccc(OC)c(OC)c2)cc1OC (stereo unspecified)
inactive: [12] 91 % of control | [13] 89 % of control | endpoint: mean survival time, dose: 50.0 mg/kg/injection, schedule: Q01DX009 (ip), vehicle: water 95 % of control | endpoint: mean survival time, dose: 100.0 mg/kg/injection, schedule: Q01DX009 (ip), vehicle: water 94 % of control | endpoint: mean survival time, dose: 200.0 mg/kg/injection, schedule: Q01DX009 (ip), vehicle: water 91 % of control

O=C1N(c2ccccc2)CCS1(=O)=O
inactive: endpoint: mean survival time, dose: 9.5 mg/kg/injection, schedule: Q01DX001 (ip), vehicle: other 101 % of control | endpoint: mean survival time, dose: 19.0 mg/kg/injection, schedule: Q01DX001 (ip), vehicle: other 100 % of control | endpoint: mean survival time, dose: 38.0 mg/kg/injection, schedule: Q01DX001 (ip), vehicle: other 106 % of control

CN(C(=O)Nc1ccccc1)c1ccccc1
inactive: endpoint: mean survival time, dose: 50.0 mg/kg/injection, schedule: Q01DX009 (ip), vehicle: other 104 % of control | endpoint: mean survival time, dose: 100.0 mg/kg/injection, schedule: Q01DX009 (ip), vehicle: other 97 % of control | endpoint: mean survival time, dose: 200.0 mg/kg/injection, schedule: Q01DX009 (ip), vehicle: other 97 % of control

O=C(NCc1ccco1)C1COc2ccccc2O1 (stereo unspecified)
inactive: endpoint: median survival time, dose: 25.0 mg/kg/injection, schedule: Q01DX009 (ip), vehicle: Klucel (hydroxypropylcellulose) (HPC) 103 % of control | endpoint: median survival time, dose: 50.0 mg/kg/injection, schedule: Q01DX009 (ip), vehicle: Klucel (hydroxypropylcellulose) (HPC) 101 % of control | endpoint: median survival time, dose: 100.0 mg/kg/injection, schedule: Q01DX009 (ip), vehicle: Klucel (hydroxypropylcellulose) (HPC) 103 % of control

CCN(CC)CC(C)(C)C(=O)/C=C/c1ccc(/C=C/C(=O)C(C)(C)CN(CC)CC)cc1
inactive: endpoint: median survival time, dose: 3.75 mg/kg/injection, schedule: Q01DX005 (ip), vehicle: saline 98 % of control | endpoint: median survival time, dose: 7.5 mg/kg/injection, schedule: Q01DX005 (ip), vehicle: saline 107 % of control | endpoint: median survival time, dose: 15.0 mg/kg/injection, schedule: Q01DX005 (ip), vehicle: saline 107 % of control | endpoint: median survival time, dose: 30.0 mg/kg/injection, schedule: Q01DX005 (ip), vehicle: saline 116 % of control

CC(=O)Nc1cc(/C=C/c2ccccc2)ccc1S(=O)(=O)c1ccc(/C=C/c2ccccc2)cc1NC(C)=O
inactive: [1] 93 % of control | [2] 96 % of control | [3] 88 % of control

CC(C)(C)CC(C)(C)c1ccc(O)c(Cl)c1
inactive: [4] 96 % of control | [5] 100 % of control | [6] 106 % of control

N#CC(/C=C/c1ccccc1)Nc1ccc(CCc2ccc(NC(C#N)/C=C/c3ccccc3)cc2)cc1 (stereo unspecified)
inactive: [1] 94 % of control | [2] 90 % of control | [3] 100 % of control

CC(C)CCC(=O)c1ccccc1
inactive: endpoint: mean survival time, dose: 50.0 mg/kg/injection, schedule: Q04DX002 (ip), vehicle: saline with Tween-80 87 % of control | endpoint: mean survival time, dose: 100.0 mg/kg/injection, schedule: Q04DX002 (ip), vehicle: saline with Tween-80 97 % of control | endpoint: mean survival time, dose: 200.0 mg/kg/injection, schedule: Q04DX002 (ip), vehicle: saline with Tween-80 91 % of control

CC(C)CC(NC(=O)CCl)C(=O)NCC(=O)O (stereo unspecified) (ClAc-[ξL]-Gly-OH)
inactive: endpoint: mean survival time, dose: 25.0 mg/kg/injection, schedule: Q01DX009 (ip), vehicle: saline with Tween-80 96 % of control | [11] 96 % of control | [1] 94 % of control

O=C(NC(=S)N1CCCC1)c1ccccc1
inactive: [11] 101 % of control | [1] 103 % of control | [2] 106 % of control

CCOC(=O)/C(C)=C(/N)c1ccccc1
inactive: [4] 98 % of control | [5] 95 % of control | [6] 92 % of control
